Reference: ChEMBL document CHEMBL3886463, “Triazolopyridine compounds” (2016)

Target: cAMP and cAMP-inhibited cGMP 3',5'-cyclic phosphodiesterase 10A (Homo sapiens, UniProt Q9Y233)
Test: Inhibition Assay: The human PDE10A full length assay was performed in 96-well micro titer plates. The reaction mixture of 50 ul contained 20 mM HEPES pH=7.5/10 mM MgCl2/0.05 mg/ml BSA (Sigma cat. # A-7906), 50 nM cGMP (Sigma, cat. # G6129) and 50 nM [3H]-cGMP (GE Healthcare, cat. # TRK392 S.A. 13.2 Ci/mmol), 3.75 ng/well PDE10A enzyme (Enzo Life Science, Lausen, Switzerland cat # SE-534) with or without a specific test compound. A range of concentrations of the potential inhibitor was used to generate data for calculating the concentration of inhibitor resulting in 50% of the effect (e.g. IC50, the concentration of the competitor inhibiting PDE10A activity by 50%). Non-specific activity was tested without the enzyme. The reaction was initiated by the addition of the substrate solution (cGMP and [3H]-cGMP) and allowed to progress for 20 minutes at room temperature. The reaction was terminated by adding 25 ul of YSi-SPA scintillation beads (GE Healthcare, cat. # RPNQ0150) in 18 mM zinc sulphate.

Chain of cAMP and cAMP-inhibited cGMP 3',5'-cyclic phosphodiesterase 10A (Q9Y233 whole entry): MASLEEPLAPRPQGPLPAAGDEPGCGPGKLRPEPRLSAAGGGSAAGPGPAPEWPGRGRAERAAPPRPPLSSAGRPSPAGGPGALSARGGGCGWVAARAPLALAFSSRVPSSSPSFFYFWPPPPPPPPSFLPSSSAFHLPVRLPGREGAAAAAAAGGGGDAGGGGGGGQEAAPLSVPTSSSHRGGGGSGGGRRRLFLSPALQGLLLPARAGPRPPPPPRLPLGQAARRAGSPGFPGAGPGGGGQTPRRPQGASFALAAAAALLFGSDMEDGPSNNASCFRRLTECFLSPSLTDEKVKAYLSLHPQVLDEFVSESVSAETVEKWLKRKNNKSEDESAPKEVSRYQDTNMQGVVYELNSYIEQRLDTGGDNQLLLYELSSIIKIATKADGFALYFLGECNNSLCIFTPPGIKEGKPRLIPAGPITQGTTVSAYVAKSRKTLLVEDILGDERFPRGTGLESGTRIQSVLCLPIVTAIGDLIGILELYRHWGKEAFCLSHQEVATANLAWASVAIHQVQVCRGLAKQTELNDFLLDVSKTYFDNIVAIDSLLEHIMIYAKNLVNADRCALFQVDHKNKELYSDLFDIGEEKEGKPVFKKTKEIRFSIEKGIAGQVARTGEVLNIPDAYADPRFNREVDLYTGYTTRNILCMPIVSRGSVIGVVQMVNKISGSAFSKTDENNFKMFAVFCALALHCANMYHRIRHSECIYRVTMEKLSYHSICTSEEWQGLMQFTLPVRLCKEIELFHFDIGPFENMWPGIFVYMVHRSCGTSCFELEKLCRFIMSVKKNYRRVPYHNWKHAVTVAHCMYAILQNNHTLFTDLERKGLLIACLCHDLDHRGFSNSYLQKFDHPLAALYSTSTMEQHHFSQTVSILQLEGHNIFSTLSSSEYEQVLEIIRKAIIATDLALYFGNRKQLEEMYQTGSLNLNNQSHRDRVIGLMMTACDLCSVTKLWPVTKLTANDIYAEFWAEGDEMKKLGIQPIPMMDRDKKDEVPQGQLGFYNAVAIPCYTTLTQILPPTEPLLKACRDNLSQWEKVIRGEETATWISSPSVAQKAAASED

Row | SMILES | IC50 [nM]
1 | CCN(CC)c1nc2ccc(NC(=O)c3c(C(=O)N4CCCC4)cnn3C)cn2n1 | 3.3
2 | Cn1ncc(C(=O)N2CCC2)c1C(=O)Nc1ccc2nc(N3CCOCC3)nn2c1 | 23.1
